Measurements published in EP1452605A1, “Method for determining antiviral activity” (Universiteit Utrecht Holding B.V., priority 2003, dated 2004).
Several values for one entry are separate records, joined by “and”; a condition that tells them apart may be missing. Equal values may be shown once.

Columns and labels:
[1] = system: CrFK cells; experiment: Cellular viability assay (MTT) of CrFK cells; type: cell-based, feline; details: concentrations used in the FIV assay
[2] = system: FIV UT-113; experiment: FIV infection of CrFK cells, FIV p24 ELISA; type: cell-based, Feline immunodeficiency virus (FIV); details: 100 to 0.024 µM, p24 after 6 days
Procedure: After 6 days of incubation FIV replication was measured by quantification of the p24 viral core antigen in the cell culture supernatant by an FIV p24 enzyme-linked immunoabsorbent assay as described previously ^19.

[3] = system: MHV-A59; experiment: MHV infection of mouse L cells, CPE scoring; type: cell-based, Mouse hepatitis virus (MHV); details: 24h, 143 to 0.009 µM
Procedure: (§1) After 24h, the cytopatic effect (CPE) of the virus and the cytotoxicity of the compounds were scored by microscopic observation.

[4] = system: Mouse L cells; experiment: Cytotoxicity in mouse L cells by microscopic observation; details: mouse L cells, all tested concentrations
Procedure: as §1

[5] = in vitro; details: human
[6] = system: HIV-1Ba-L; experiment: Combination of HIV-1 inhibitors in HIV-1Ba-L infected PBMC (checker board, CalcuSyn)
Procedure: After 7 days of incubation, p24 antigen in culture supernatant was quantified by ELISA and cellular viability was assessed by a cytotoxicity assay. fa was calculated for each drug combination after p24 quantification. Using the CalcuSyn program, dose-effect curves were plotted for each drug combination, i.e., each dose was plotted against the corresponding fa value. […] CI values were calculated using the mutually nonexclusive assumption.

[7] = system: HIV-1HXB2; experiment: Reverse transcription assay in PBMC: (-) strong stop and gag DNA by real-time Taqman PCR; type: cell-based; details: 10h after infection; for reduction in gag cDNA copies: PBMC
Procedure: PBMC infection with HIV-1Ba-L or HIV-1HXB2 for real-time Taqman PCR The ability of HIV-1Ba-L to enter the cells in the presence of APHS was tested using DS as positive control (entry assay). The amount of HIV-1HXB2 reverse transcription products in the presence of APHS was also tested, using AZT as positive control (reverse transcription assay). Before infection, PHA-stimulated PBMC from the PBMC batch were pre-incubated with different concentrations of APHS, DS or AZT for 24 h. Afterwards, cells were washed and 1 × 10^6 PBMC were incubated for 40 min with HIV-1Ba-L or HIV-1HXB2 at an M.O.I. of 0.0025 and with appropriate concentrations of APHS, AZT, DS or medium in the presence of 1/20 concentrated M buffer (Roche) and 4U/ml DNase (Roche) to digest possible contaminating viral DNA associated with the virions. Afterwards PBMC were washed and resuspended in medium with or without compounds. Cells were treated with 1 mg/ml Pronase (Roche) to remove virus particles bound to the cells. […] At different time points, 1.0 × 10^6 cells were added to 900 µl Nuclisens lysis buffer (Organon Teknika, Boxtel, The Netherlands) containing 40 µl silica to bind total nucleic acids (Nuclisens isolation kit). For the entry assay, samples were collected 2h after the start of the infection and for the reverse transcription assays samples were collected 2, 7 and 10h after the start of the infection.
HIV RNA and DNA were extracted from samples of infected cells according to a method described before ^23. Briefly, after 10 min of mixing the silica and lysis buffer, tubes were shortly centrifuged at 13,000 rpm and supernatant was discarded. Free non-nucleic acid components were removed by washing the silica particles twice with Nuclisens washing buffer, twice with 70 % ethanol and once with acetone. The silica pellet was dried for 10 min at 56 °C. Total nucleic acids were eluted by resuspending the pellet in 100 µl nuclease-free water. After mixing the tubes for 10 min at 56 °C, tubes were shortly centrifuged and the supernatant was transferred to a new tube and stored at -20 °C.
Real-time Taqman PCR is based on cleavage of a probe, hybridized to the target sequence by 5'-3' nuclease activity of Taq DNA polymerase during amplification, as described previously ^24. Briefly, target sequence-specific forward and reverse primers prime the amplification reaction. The probe contains a reporter dye at the 5' end and a quencher dye at the 3' end. When both dyes are attached to the probe, reporter dye emission is quenched. The probe is displaced from the target during each polymeration cycle. Once separated from the quencher, the reporter dye emits its characteristic fluorescence, which can then be measured. The amount of fluorescence measured is proportional to the amount of PCR product.
HIV-1 gag cDNA and HIV-1 (-) strong stop and gag DNA were amplified and quantified by real-time Taqman PCR as described elsewhere ^25. Sets of primers/probes were designed according to a previous study by Zack and colleagues ^26. To quantify the amount of gag RNA in the samples, a cDNA standard curve was prepared from five-fold dilutions of extracted RNA from an HXB2 viral batch, of which the RNA amount was previously determined. To quantify (-) strong stop and gag DNA in the samples, a DNA standard curve was prepared from five-fold dilutions of DNA extracted from U1 cells, which contain two copies of the HIV-1HXB2 genome per cell. Albumin was also quantified and used for normalization of all samples.

[8] = system: HIV-1Ba-L; experiment: HIV-1 infection of PBMC, p24-core antigen ELISA; type: cell-based; details: Human immunodeficiency virus 1, PBMC; read-out: IC50
Procedure: To correct for the input virus, an extra control consisting of medium containing the same amount of input virus as added to the cells was included in the experiment. The amount of p24 in this control was subsequently subtracted from the p24 values of the samples in order to obtain the exact amount of p24 produced by the cells. p24-core antigen quantification by ELISA After 2 or 7 days incubation, samples of the supernatants were collected, inactivated by addition of Empigen (Calbiochem, La Jolla, CA, USA) and by heat inactivation at 56°C for 30 min. p24-core antigen concentration was determined by an enzyme linked immunoabsorbent assay (ELISA) (AMPAK™, DAKO, Cambridgeshire, UK) as described previously ^18,19. The optical density values were converted into p24 concentration (ng/ml) with the use of a calibration curve made by serial dilutions of recombinant p24 protein (NIBSC, UK) that was submitted to the same treatment as the samples.
(§2) To correct for the input virus, an extra control consisting of medium containing the same amount of input virus as added to the cells was included in the experiment. The amount of p24 in this control was subsequently subtracted from the p24 values of the samples in order to obtain the exact amount of p24 produced by the cells.
(§3) After 7 days incubation, samples of the supernatants were collected, inactivated by addition of Empigen (Calbiochem, La Jolla, CA, USA) and by heat inactivation at 56°C for 30 min. p24-core antigen concentration was determined by an ELISA (AMPAK™, DAKO, Cambridgeshire, UK) as described previously ^39,40. The optical density values were converted into p24 concentration (ng/ml) with the use of a calibration curve made by serial dilutions of recombinant p24 protein (NIBSC, UK) that was submitted to the same treatment as the samples.
as §2
as §3, with “enzyme linked immunoabsorbent assay (ELISA)” for “ELISA”, “15,16.” for “^39,40.”

Compound | cytotoxicity for CrFK cells [1] | effect on FIV replication [2] | effect on MHV replication (CPE) [3] | cytotoxicity by microscopic observation [4] | CC50 at 7 days [5] [nM] | IC50 ([6]; Human immunodeficiency virus 1, PBMC, 168 h, read-out: IC50 Drug, drug alone, head over this column prints Combination) [nM] | IC50 ([6]; read-out: IC50 Combination Drug, drug in combination with APHS at the equipotent ratio (1 : 1)) [nM] | reduction in gag cDNA copies ([7]; 5 nM AZT) | reduction in gag cDNA copies ([7]; 1000 nM AZT) [%] | (-) strong stop DNA copy numbers versus untreated PBMC ([7]; 10 or 30 µM APHS, 5 or 1000 nM AZT) | IC50 [8] [nM]
CCCCCSc1ccccc1O [APHS-d, phenol, 2-(pentylthio)] | not cytotoxic | did not show any effect | no effect | not cytotoxic |  |  |  |  |  |  | 
Cc1cn([C@H]2C[C@H](N=[N+]=[N-])[C@@H](CO)O2)c(=O)[nH]c1=O [AZT, zidovudine] |  |  |  |  | > 80000 | 3 | 2 | 35% and 40% | 90 | did not show a significant decrease | 3
